Converted amounts (≈) assume the structure as drawn. Like-named read-outs stand apart in the source and are kept apart here.
Legend:
[1] = tested on: Lactobacillus iners ATCC 55195; assay: MIC by broth microdilution method (CLSI M07-A8 / M11-A7); format: cell-based; settings: ATCC55195
Protocol: The in vitro activity of nifuratel sulfoxide racemate, R-nifuratel sulfoxide and S-nifuratel sulfoxide was tested on a panel of bacteria, which included both Gram positive and Gram negative bacteria. The minimum inhibitory concentrations (MICs) of the compounds were determined by the broth microdilution method or by the agar dilution method, according to the National Committee for Clinical Laboratory Standards (CLSI) reference methods […]-A8 and M11-A7.

[2] = Rat pharmacokinetics in plasma, non compartmental analysis; format: in vivo, male rats
Protocol: The pharmacokinetic profiles in plasma of nifuratel and nifuratel sulfoxide were tested after intravenous administration (2mg/kg) and oral gavage (15mg/kg) in male rats. […]

[3] = tested on: Salmonella paratyphi B ATCC 10719; assay: MIC by broth microdilution method (CLSI M07-A8 / M11-A7); efficiency coefficient derived; format: cell-based; settings: Salmonella enterica, read-out: MIC
Protocol: (§1) The in vitro activity of nifuratel sulfoxide racemate, R-nifuratel sulfoxide and S-nifuratel sulfoxide was tested on a panel of bacteria, which included both Gram positive and Gram negative bacteria.
(§2) The minimum inhibitory concentrations (MICs) of the compounds were determined by the broth microdilution method or by the agar dilution method, according to the National Committee for Clinical Laboratory Standards (CLSI) reference methods M07-A8 and M11-A7.
(§3) The efficiency coefficient (EC) of nifuratel sulfoxide vs. nifuratel was calculated for each tested strain as follows: EC = relative oral bioavailability*[…] [formula]
(§4) Where: • nifS = nifuratel sulfoxide • nif = nifuratel • EC = 1 is indicative of equivalent efficiency between nifuratel sulfoxide and nifuratel. • EC < 1 is indicative of a lower efficiency of nifuratel sulfoxide vs. nifuratel • EC > 1 is indicative of a higher efficiency of nifS vs. nif

[4] = tested on: Micrococcus pyogenes ATCC 11631; assay: as above; format: cell-based; settings: Staphylococcus aureus, ATCC11631
Protocol: as §1, §2, §3, §4

[5] = tested on: Staphylococcus aureus (MRSA); assay: as above; format: cell-based
Protocol: as §1, §2, §3, §4

[6] = tested on: Salmonella typhimurium ATCC 14028; assay: as above; format: cell-based; settings: Salmonella enterica
Protocol: as §1, §2, §3, §4

[7] = tested on: Neisseria gonorrhoeae ATCC 19424; assay: as above; format: cell-based; settings: ATCC19424
Protocol: as §1, §2, §3, §4

[8] = tested on: Escherichia coli ATCC 11775; assay: as above; format: cell-based; settings: ATCC11775
Protocol: as §1, §2, §3, §4

[9] = tested on: Klebsiella pneumonia ATCC 10031; assay: as above; format: cell-based; settings: Klebsiella pneumoniae, ATCC10031
Protocol: as §1, §2, §3, §4

[10] = tested on: Shigella sonnei ATCC 11060; assay: as above; format: cell-based; settings: ATCC11060, read-out: MIC
Protocol: as §1, §2, §3, §4

[11] = tested on: Proteus mirabilis ATCC 14153; assay: as above; format: cell-based; settings: ATCC14153
Protocol: as §1, §2, §3, §4

Gardnerella vaginalis = assay: MIC by agar dilution method (CLSI M07-A8 / M11-A7); efficiency coefficient derived; format: cell-based; settings: for MIC: Gardnerella vaginalis
Protocol: as §1, §2, §3, §4

Atopobium vaginae = assay: as above; format: cell-based; settings: for MIC: Fannyhessea vaginae
Protocol: as §1, §2, §3, §4

[12] = Metabolic profiling of nifuratel in human urines by LC/MS/MS after oral administration; format: in vivo
Protocol: As a matter of fact, metabolic profiling of nifuratel, following oral administration, was assessed in human urines by liquid chromatography/tandem mass spectrometry (LC/MS/MS).
More in details, urines of two subjects treated orally with nifuratel were collected at the following time-points: pre-dose, 0-4, 4-8, 8-12, 12-24, 24-36 and 36-48 h after treatment.
Nifuratel was not detected in any of the urine samples. […] Based on such a discovery, the applicant has performed both in vitro and in vivo tests in order to establish whether nifuratel sulfoxide is endowed with anti-bacterial activity.

[13] = 2mg/kg intravenous administration, male rats
[14] = 15mg/kg oral administration, male rats
[15] = IV (2mg/Kg), male rats, plasma, mean
[16] = rat, in vivo, IV (2mg/Kg), male rats, plasma, mean
[17] = rat, in vivo, XOS (15mg/kg), oral gavage, male rats, plasma, mean
[18] = male, rat, in vivo, iv, 2 mg/kg
[19] = male, rat, in vivo, po, 15 mg/kg

C[S+]([O-])CC1CN(/N=C/c2ccc([N+](=O)[O-])o2)C(=O)O1 (racemic) [Nifuratel sulfoxide, nifuratel sulfoxide]
MIC ([1]; broth microdilution, Lactobacillus iners ATCC 55195, read-out: MIC): 16 µg/mL (≈ 53.1 µM)
AUC, folds higher than nifuratel [2, 13]: over 5 folds
Cmax, folds higher than nifuratel [2, 13]: 4 folds
clearance, folds slower with respect to nifuratel [2, 13]: over 5 folds
AUC, folds higher than nifuratel [2, 14]: 30 folds
Cmax, folds higher than nifuratel [2, 14]: 37 folds
increased bioavailability versus nifuratel [2, 14]: 5 fold
T1/7 [2, 15]: 15.5 min
Tlast [2, 15]: 120 min
Vss [2, 15]: 0.865 kg⁻¹
Mean Fpo ([2]; XOS (15mg/kg), oral gavage, male rats): 11%
Tlast ([2]; XOS (15mg/kg), oral gavage, male rats, plasma, mean): 240 min
AUC(0-inf) [2, 16]: 703 ng·h/mL
AUC(0-t) [2, 16]: 700 ng·h/mL
MRT [2, 16]: 17.7 min
clearance [2, 16]: 47.5 mL/min/kg
C0 ([2]; rat, in vivo, IV (2mg/Kg), male rats, plasma, mean, read-out: C0): 2820 ng/mL
concentration at 120 min ([2]; rat, in vivo, IV (2mg/Kg), male rats, plasma, mean, read-out: Clast): 73 ng/mL
Cmax ([2]; rat, in vivo, IV (2mg/Kg), male rats, plasma, mean, read-out: Cmax): 2220 ng/mL
Tmax ([2]; rat, in vivo, IV (2mg/Kg), male rats, plasma, mean, read-out: Tmax (converted)): 2 min
AUC(0-t) [2, 17]: 605 ng·h/mL
MRT [2, 17]: 94 min
half-life [2, 17]: 128 min
concentration at 240 min ([2]; rat, in vivo, XOS (15mg/kg), oral gavage, male rats, plasma, mean, read-out: Clast): 80.6 ng/mL
Cmax ([2]; rat, in vivo, XOS (15mg/kg), oral gavage, male rats, plasma, mean, read-out: Cmax): 298 ng/mL
Tmax ([2]; rat, in vivo, XOS (15mg/kg), oral gavage, male rats, plasma, mean, read-out: Tmax (converted)): 23 min
MIC [3]: 8 µg/mL (≈ 26.6 µM)
MIC ([4]; broth microdilution, Micrococcus pyogenes ATCC 11631, read-out: MIC): 32 µg/mL (≈ 106 µM)
MIC ([5]; broth microdilution, Staphylococcus aureus (MRSA), read-out: MIC): 16 µg/mL (≈ 53.1 µM)
MIC ([6]; broth microdilution, Salmonella typhimurium ATCC 14028, read-out: MIC): 32 µg/mL (≈ 106 µM)
MIC ([7]; broth microdilution, Neisseria gonorrhoeae ATCC 19424, read-out: MIC): 2 µg/mL (≈ 6.64 µM)
MIC ([8]; broth microdilution, Escherichia coli ATCC 11775, read-out: MIC): 16 µg/mL (≈ 53.1 µM)
MIC ([9]; broth microdilution, Klebsiella pneumonia ATCC 10031, read-out: MIC): 16 µg/mL (≈ 53.1 µM)
MIC [10]: 16 µg/mL (≈ 53.1 µM)
MIC ([11]; broth microdilution, Proteus mirabilis ATCC 14153, read-out: MIC): 8 µg/mL (≈ 26.6 µM)
MIC (Gardnerella vaginalis; ATCC14018, agar dilution, strain ATCC 14018, read-out: MIC): 8 µg/mL (≈ 26.6 µM)
MIC (Gardnerella vaginalis; agar dilution, strain C2, read-out: MIC): 16 µg/mL (≈ 53.1 µM)
MIC (Gardnerella vaginalis; agar dilution, strain D2, read-out: MIC): 32 µg/mL (≈ 106 µM)
MIC (Gardnerella vaginalis; agar dilution, strain E2, read-out: MIC): 32 µg/mL (≈ 106 µM)
MIC (Gardnerella vaginalis; agar dilution, strain G2, read-out: MIC): 32 µg/mL (≈ 106 µM)
MIC (Gardnerella vaginalis; agar dilution, strain H2, read-out: MIC): 8 µg/mL (≈ 26.6 µM)
MIC (Gardnerella vaginalis; agar dilution, strain J2, read-out: MIC): 32 µg/mL (≈ 106 µM)
MIC (Gardnerella vaginalis; agar dilution, strain K2, read-out: MIC): 32 µg/mL (≈ 106 µM)
in vitro antimicrobial activity (in words) (Gardnerella vaginalis; tested Gardnerella vaginalis strains): good activity
MIC (Atopobium vaginae; CCUG38953, agar dilution, strain CCUG 38953, read-out: MIC): 2 µg/mL (≈ 6.64 µM)
MIC (Atopobium vaginae; CCUG39382, agar dilution, strain CCUG 39382, read-out: MIC): 1 µg/mL (≈ 3.32 µM)
MIC (Atopobium vaginae; CCUG42099, agar dilution, strain CCUG 42099, read-out: MIC): 2 µg/mL (≈ 6.64 µM)
MIC (Atopobium vaginae; CCUG43049, agar dilution, strain CCUG 43049, read-out: MIC): 4 µg/mL (≈ 13.3 µM)
MIC (Atopobium vaginae; CCUG44061, agar dilution, strain CCUG 44061, read-out: MIC): 1 µg/mL (≈ 3.32 µM)
MIC (Atopobium vaginae; CCUG44156, agar dilution, strain CCUG 44156, read-out: MIC): 1 µg/mL (≈ 3.32 µM)
MIC (Atopobium vaginae; CCUG48515, agar dilution, strain CCUG 48515, read-out: MIC): 2 µg/mL (≈ 6.64 µM)
MIC (Atopobium vaginae; CCUG55226, agar dilution, strain CCUG 55226, read-out: MIC): 4 µg/mL (≈ 13.3 µM)
MIC (Atopobium vaginae; CCUG55227, agar dilution, strain CCUG 55227, read-out: MIC): 4 µg/mL (≈ 13.3 µM)
in vitro antimicrobial activity (in words) (Atopobium vaginae; tested Atopobium vaginae strains): good activity
metabolite found in urine ([12]; two subjects treated orally with nifuratel, attributed by mass spectrometry): major metabolite

CSCC1CN(/N=C/c2ccc([N+](=O)[O-])o2)C(=O)O1 (stereo not drawn) [Nifuratel]
MIC ([1]; Lactobacillus iners): 16 µg/mL (≈ 56.1 µM)
C0 [2, 18]: 798 ng/mL
T1/7 [2, 18]: 24 min
Tlast [2, 18]: 120 min
concentration at 120 min [2, 18]: 5 ng/mL
Cmax [2, 19]: 8 ng/mL
Tmax [2, 19]: 30 min
Vss ([2]; rat, in vivo, iv, 2 mg/kg): 4.5 kg⁻¹
MIC [3]: 2 µg/mL (≈ 7.01 µM)
MIC [4]: 1 µg/mL (≈ 3.51 µM)
MIC ([5]; Staphylococcus aureus, MRSA): 2 µg/mL (≈ 7.01 µM)
MIC [6]: 4 µg/mL (≈ 14 µM)
MIC ([7]; Neisseria gonorrhoeae): 0.25 µg/mL (≈ 0.876 µM)
MIC ([8]; Escherichia coli): 1 µg/mL (≈ 3.51 µM)
MIC [9]: 2 µg/mL (≈ 7.01 µM)
MIC [10]: 1 µg/mL (≈ 3.51 µM)
MIC ([11]; Proteus mirabilis): 8 µg/mL (≈ 28 µM)
MIC (Gardnerella vaginalis; ATCC14018, agar dilution, strain ATCC 14018): 2 µg/mL (≈ 7.01 µM)
MIC (Gardnerella vaginalis; agar dilution, strain C2): 8 µg/mL (≈ 28 µM)
MIC (Gardnerella vaginalis; agar dilution, strain D2): 4 µg/mL (≈ 14 µM)
MIC (Gardnerella vaginalis; agar dilution, strain E2): 2 µg/mL (≈ 7.01 µM)
MIC (Gardnerella vaginalis; agar dilution, strain G2): 2 µg/mL (≈ 7.01 µM)
MIC (Gardnerella vaginalis; agar dilution, strain H2): 1 µg/mL (≈ 3.51 µM)
MIC (Gardnerella vaginalis; agar dilution, strain J2): 2 µg/mL (≈ 7.01 µM)
MIC (Gardnerella vaginalis; agar dilution, strain K2): 4 µg/mL (≈ 14 µM)
MIC (Atopobium vaginae; CCUG38953): 0.125 µg/mL (≈ 0.438 µM)
MIC (Atopobium vaginae; CCUG39382): 0.25 µg/mL (≈ 0.876 µM)
MIC (Atopobium vaginae; CCUG42099): 0.5 µg/mL (≈ 1.75 µM)
MIC (Atopobium vaginae; CCUG43049): 0.25 µg/mL (≈ 0.876 µM)
MIC (Atopobium vaginae; CCUG44061): 0.5 µg/mL (≈ 1.75 µM)
MIC (Atopobium vaginae; CCUG44156): 0.5 µg/mL (≈ 1.75 µM)
MIC (Atopobium vaginae; CCUG48515): 1 µg/mL (≈ 3.51 µM)
MIC (Atopobium vaginae; CCUG55226): 1 µg/mL (≈ 3.51 µM)
MIC (Atopobium vaginae; CCUG55227): 0.25 µg/mL (≈ 0.876 µM)
detection of parent compound in urine samples ([12]; in vivo, po): not detected
